By EC90 is commonly meant the concentration needed for an effect of 90%. One may read the half-life as how long it takes for the measured level to halve. By bioavailability is commonly meant dose-corrected exposure relative to a reference, in per cent. In general, Tmax refers to the time at which the peak concentration occurs. The term EC50 denotes the concentration giving half of the maximal effect. The low end stands for an effect from little substance, the high end for a need for much substance. As usually defined, the clearance is the volume of plasma or blood freed of the substance per unit of time. Broadly, the AUC(0-t) is exposure summed from dosing to a finite time, without extrapolation to infinity. A higher AUC(0-t) goes with high exposure.

Data on six molecules can be found in publication PMC8097421 (Antimicrobial Agents and Chemotherapy, 2021).

Series [1] is described as follows: in vitro. The note with it: human.
Series [2] deals with SARS-CoV-2 (USA-WA1/2020). Put plainly: microbe, parasite or virus in culture. Format: cell-based, SARS-CoV-2 (Betacoronavirus). The note with it: SARS-CoV-2, HAE cells.
Series [3] deals with MRC-5 (human lung fibroblast) cells. The note with it: 8 h, 10 µM.
The next series deals with NiRAN domain of nsp12. On the set-up: method as in our unpublished data. The note with it: ref our unpublished data; cited from earlier work.
Another series concerns Huh-7 cells. The note with it: human, 8 h, 10 µM.
The conditions of series [4]: male, cynomolgus monkey, in vivo.
Series [5] is described as follows: in vivo. The note with it: male, cynomolgus monkey; for half-life: po, 30 mg/kg.
Series [6] deals with human bronchial epithelial (HBE) cells. To be noted: 10 µM.
Series [7] can be described thus: in vitro. To be noted: human, intracellular half-life (t1/2) of AT-9010.
Series [8] has as its system primary human hepatocytes. The note with it: cited from earlier work.
For a further series, the system named is primary NHP hepatocytes. To be noted: cited from earlier work.
A short description of series [9]: in vitro. To be noted: human, intracellular half-life (t1/2) of AT-9010. The source holds these as a separate data set.
Series [10] can be described thus: Clinical observation of nonhuman primates in the PK study. Format: in vivo, cynomolgus monkey. The note with it: NHP, oral AT-527 60 mg/kg loading then 30 mg/kg every 12 h.
A short description of series [11]: Estimated oral bioavailability. The note with it: in vivo, species and source not stated.
Details of series [12]: method as in doi:10.1016/S0168-8278(20)31210-1. To be noted: HCV-infected subjects, daily oral 550 mg with daclatasvir for up to 12 weeks; cited from earlier work.
Series [13] in a line: Steady-state plasma pharmacokinetics in nonhuman primates after oral AT-527. The note with it: NHP plasma, oral AT-527 60 mg/kg loading then 30 mg/kg every 12 h.
Series [14] is described as follows: in vivo. To be noted: male, cynomolgus, cynomolgus monkey, po, 30 mg/kg.
The subject of the next series is HCoV-229E. As to the kind of experiment: CPE assay, HCoV-229E in BHK-21 cells. The note with it: Human coronavirus 229E, 72 h, 3-day incubation, MOI 0.01. The class given is cell-based, HCoV-229E (Alphacoronavirus). Here is the method: (§1) To assess whether AT-511, a 2′-fluoro-2′-methyl guanosine nucleotide prodrug (Fig. 1), had antiviral activity against a seasonal human alpha coronavirus, HCoV-229E, BHK-21 (baby hamster kidney) cells were acutely infected with the virus and exposed to serial dilutions of the drug. […] Half-maximal cytotoxicity (CC50) measured by neutral red staining of compound-treated cells in the absence of virus indicated little to no toxicity was detected from either drug up to 100 μM.
(§2) AT-511 and sofosbuvir were dissolved in DMSO at 100 mM and then diluted in growth medium to final concentrations of 100, 20, 4, and 0.8 μM (two […] replicate plates each). After BHK-21 cells were grown to confluence in 96-well plates, growth medium was replaced with fresh maintenance medium (growth medium with 1% inactivated FBS in place of 10% FBS) containing serially diluted test compound and HCoV-229E at a multiplicity of infection (MOI) of 0.01. Uninfected cells in the presence of serially diluted compound were used to assess the cytotoxicity of compounds. After a 3-day incubation at 37°C in a humidified 5% CO2 atmosphere, cell viability was determined by the 3-(4,5-dimethyl-2-thiazolyl)-2,5-diphenyl-2H-tetrazolium bromide (MTT) method ([22]). […]

The nature of series [15]: Cytotoxicity in uninfected BHK-21 cells. The class given is cell-based. To be noted: hamster, 3-day incubation, read-out: CPE assay CC50. Here is the method:
as §1, §2

The next series can be described thus: clinical. To be noted: human, in vivo.
For series [16] the following is noted: human, in vivo.

Marks after values point to notes of the source that are not given here.

Molecule `CC(C)C(=O)OC[C@H]1O[C@@H](n2ccc(NO)nc2=O)[C@H](O)[C@@H]1O` [Molnupiravir] had a CC50 at 5 days in the series “in vitro [1]” of over 19 µM. The “Selectivity index (CC50/EC90)” value in series [2] (CC50/EC90) is given as >4.9^c. The EC90 in series [2] (Severe acute respiratory syndrome coronavirus 2, 120 h, 5-day incubation, read-out: VYR assay EC90) came to 2.8 ± 1 µM.
In the case of `C[C@@]1(F)[C@H](O)[C@@H](COP(=O)(O)OP(=O)(O)OP(=O)(O)O)O[C@H]1n1cnc2c(=O)[nH]c(N)nc21` [AT-9010], the results for the AT-9010 formed (in [3]; in the series with Huh-7 cells) were 26.5 ± 0.5 pmol/10^6 cells and 182 ± 6 pmol/10^6 cells, respectively. Moreover, in the series on NiRAN domain of nsp12, the “inhibition of NiRAN” value is on record as “potent inhibitor”. The “AT-9010 lung-to-liver concentration ratio” value in series [4] (12 h) is reported as 1.6. In addition, the “AT-9010 in liver samples at 48-h postdose” value in series [4] (48 h) is on record as “no peak corresponding to AT-9010 was detected”. The figures for the concentration at 12 h in the series “in vivo [5]” (AT-9010 concentration in kidney), in “in vivo [5]” (AT-9010 concentration in liver tissue) and in the series “in vivo [5]” (AT-9010 concentration in lung tissue) were 130 ± 40 nM, 90 ± 30 nM and 140 ± 110 nM, respectively. Also, the half-life in the series “in vivo [5]” (estimated half-life of AT-9010 in kidney tissue) was 8.5 h; in the series “in vivo [5]” (estimated half-life of AT-9010 in lung tissue) it was 9.4 h. In addition, the “in vitro t1/2 of the TP, fold longer than in hepatocytes” value in series [6] worked out at 4. In addition, the half-life at 10 µM in “in vitro [7]” and in “in vitro [9]” was 38 to 39 h in each case. Further, the “in vitro t1/2 of AT-9010” value (in [8]; in the series with primary NHP hepatocytes) was 10 h each time.
Regarding `CNc1nc(N)nc2c1ncn2C1OC(COP(=O)(NC(C)C(=O)OC(C)C)Oc2ccccc2)C(O)C1(C)F` (stereo not shown) [AT-527], the “unusual or adverse clinical signs” value in series [10] was “no such signs noted”. Besides, the bioavailability in [11] was at least 50%. For the same molecule, the safety and tolerability entry in series [12] was “safe and well tolerated”.
With `CNc1nc(N)nc2c1ncn2[C@@H]1O[C@H](CO[P@](=O)(O)N[C@@H](C)C(=O)O)[C@@H](O)[C@@]1(C)F` [AT-551], the “AUC0–12” value in [13] is 4.35 ± 1.77 µM·h. Also, the Tmax in the series “in vivo [14]” lay within 1 to 4 h.
Molecule `CC(C)OC(=O)[C@H](C)N[P@](=O)(OC[C@H]1O[C@@H](n2ccc(=O)[nH]c2=O)[C@](C)(F)[C@@H]1O)Oc1ccccc1` [Sofosbuvir] registered an EC50 with HCoV-229E of over 100 µM. Further, in series [15], the CC50 at 3 days is over 100 µM.
With `C[C@@]1(F)[C@H](O)[C@@H](CO)O[C@H]1n1cnc2c(=O)[nH]c(N)nc21` [AT-273], in “clinical”, the clearance is 3130 mL/min. Further, in “in vivo [14]”, the AUC(0-t) worked out at 1.56 ± 0.18 µM·h and the half-life is 16 h. In addition, in series [16], the “absorption constant (Ka), population estimate” value is reported as 0.45 (±0.00253) h^−1; the “volume of central compartment (V1), population estimate” value was 2,070 (±146) liters; the “volume of peripheral compartment (V2), population estimate” value is listed as 1,270 (±164) liters.
